Where two headings read alike, the source gives them in different places.
Key:
[1] = system: Amaranthus rudis (AMATA), tall water hemp; experiment: Postemergence herbicide evaluation, growth of Amaranthus rudis (AMATA); assay type: in vivo; details: Amaranthus tuberculatus, post-emergence, percent reduction in plant size relative to untreated control, read-out: Ave. AMATA; for pest or weed control at 280 g/ha: 280 g ae/ha; for pest or weed control at 560 g/ha: 560 g ae/ha
[2] = system: Ambrosia artemisiifolia (AMBEL), common ragweed; experiment: Postemergence herbicide evaluation, growth of Ambrosia artemisiifolia (AMBEL); assay type: in vivo; details: Ambrosia artemisiifolia, post-emergence, percent reduction in plant size relative to untreated control, read-out: AVE. AMBEL; for pest or weed control at 280 g/ha: 280 g ae/ha; for pest or weed control at 560 g/ha: 560 g ae/ha
[3] = system: Abutilon theophrasti (ABUTH), velvetleaf; experiment: Postemergence herbicide evaluation, growth of Abutilon theophrasti (ABUTH); assay type: in vivo; details: Abutilon theophrasti, post-emergence, percent reduction in plant size relative to untreated control, read-out: AVE. ABUTH; for pest or weed control at 280 g/ha: 280 g ae/ha; for pest or weed control at 560 g/ha: 560 g ae/ha
[4] = system: Chenopodium album (CHEAL), common lambsquarters; experiment: Postemergence herbicide evaluation, growth of Chenopodium album (CHEAL); assay type: in vivo; details: Chenopodium album, post-emergence, percent reduction in plant size relative to untreated control, read-out: Ave. CHEAL; for pest or weed control at 280 g/ha: 280 g ae/ha; for pest or weed control at 560 g/ha: 560 g ae/ha
[5] = system: glyphosate resistant Conyza canadensis (L.) (ERICA), horseweed; experiment: Postemergence herbicide evaluation, growth of Conyza canadensis (ERICA); assay type: in vivo; details: Erigeron canadensis, post-emergence, percent reduction in plant size relative to untreated control, read-out: Ave. ERICA; for pest or weed control at 280 g/ha: 280 g ae/ha; for pest or weed control at 560 g/ha: 560 g ae/ha
[6] = Volatility of compounds measured by thermogravimetric analysis (TGA); assay type: physicochemical
[7] = system: weeds (ABUTH, AMATA, AMBEL, CHEAL, ERICA); experiment: Postemergence herbicide evaluation, overall average % weed control across ABUTH, AMATA, AMBEL, CHEAL, ERICA; assay type: in vivo; details: post-emergence, average over the five weeds, read-out: Overall Ave % Weed Control; for pest or weed control at 280 g/ha: 280 g ae/ha; for pest or weed control at 560 g/ha: 560 g ae/ha

Compound	pest or weed control at 280 g/ha ([1]; 168 h, 7 DAA)	pest or weed control at 560 g/ha ([1]; 168 h, 7 DAA)	pest or weed control at 280 g/ha ([1]; 336 h, 14 DAA)	pest or weed control at 560 g/ha ([1]; 336 h, 14 DAA)	pest or weed control at 280 g/ha ([1]; 504 h, 21 DAA)	pest or weed control at 560 g/ha ([1]; 504 h, 21 DAA)	pest or weed control at 280 g/ha ([2]; 168 h, 7 DAA)	pest or weed control at 560 g/ha ([2]; 168 h, 7 DAA)	pest or weed control at 280 g/ha ([2]; 336 h, 14 DAA)	pest or weed control at 560 g/ha ([2]; 336 h, 14 DAA)	pest or weed control at 280 g/ha ([2]; 504 h, 21 DAA)	pest or weed control at 560 g/ha ([2]; 504 h, 21 DAA)	pest or weed control at 280 g/ha ([3]; 168 h, 7 DAA)	pest or weed control at 560 g/ha ([3]; 168 h, 7 DAA)	pest or weed control at 280 g/ha ([3]; 336 h, 14 DAA)	pest or weed control at 560 g/ha ([3]; 336 h, 14 DAA)	pest or weed control at 280 g/ha ([3]; 504 h, 21 DAA)	pest or weed control at 560 g/ha ([3]; 504 h, 21 DAA)	pest or weed control at 280 g/ha ([4]; 168 h, 7 DAA)	pest or weed control at 560 g/ha ([4]; 168 h, 7 DAA)	also measured
O=C(COc1ccc(Cl)cc1Cl)ON1CCCCC1 [Compound A11, Piperidin-1-yl 2-(2,4-dichlorophenoxy)acetate]	73%	75%	89%	85%	85%	88%	65%	78%	90%	97%	95%	100%	83%	85%	93%	89%	99%	95%	68%	70%	pest or weed control at 280 g/ha ([4]; 336 h, 14 DAA): 75%; pest or weed control at 560 g/ha ([4]; 336 h, 14 DAA): 80%; pest or weed control at 280 g/ha ([4]; 504 h, 21 DAA): 80%; pest or weed control at 560 g/ha ([4]; 504 h, 21 DAA): 97%; pest or weed control at 280 g/ha ([5]; 168 h, 7 DAA): 65%; pest or weed control at 560 g/ha ([5]; 168 h, 7 DAA): 68%; pest or weed control at 280 g/ha ([5]; 336 h, 14 DAA): 90%; pest or weed control at 560 g/ha ([5]; 336 h, 14 DAA): 85%; pest or weed control at 280 g/ha ([5]; 504 h, 21 DAA): 95%; pest or weed control at 560 g/ha ([5]; 504 h, 21 DAA): 95%; TGA Data (rate of weight loss, volatility) [6]: 4 µg/min; pest or weed control at 280 g/ha ([7]; 168 h, 7 DAA): 71%; pest or weed control at 560 g/ha ([7]; 168 h, 7 DAA): 75%; pest or weed control at 280 g/ha ([7]; 336 h, 14 DAA): 87%; pest or weed control at 560 g/ha ([7]; 336 h, 14 DAA): 87%; pest or weed control at 280 g/ha ([7]; 504 h, 21 DAA): 91%; pest or weed control at 560 g/ha ([7]; 504 h, 21 DAA): 95%
C/C(N)=N/OC(=O)COc1ccc(Cl)cc1Cl [Compound A12, N′-(2-(2,4-Dichlorophenoxy)acetoxy)acetimidamide]	75%	78%	97%	83%	86%	88%	65%	75%	83%	96%	97%	99%	85%	93%	90%	97%	96%	99%	68%	68%	pest or weed control at 280 g/ha ([4]; 336 h, 14 DAA): 80%; pest or weed control at 560 g/ha ([4]; 336 h, 14 DAA): 78%; pest or weed control at 280 g/ha ([4]; 504 h, 21 DAA): 86%; pest or weed control at 560 g/ha ([4]; 504 h, 21 DAA): 80%; pest or weed control at 280 g/ha ([5]; 168 h, 7 DAA): 65%; pest or weed control at 560 g/ha ([5]; 168 h, 7 DAA): 68%; pest or weed control at 280 g/ha ([5]; 336 h, 14 DAA): 90%; pest or weed control at 560 g/ha ([5]; 336 h, 14 DAA): 91%; pest or weed control at 280 g/ha ([5]; 504 h, 21 DAA): 99%; pest or weed control at 560 g/ha ([5]; 504 h, 21 DAA): 97%; TGA Data (rate of weight loss, volatility) [6]: 5.8 µg/min; pest or weed control at 280 g/ha ([7]; 168 h, 7 DAA): 72%; pest or weed control at 560 g/ha ([7]; 168 h, 7 DAA): 76%; pest or weed control at 280 g/ha ([7]; 336 h, 14 DAA): 88%; pest or weed control at 560 g/ha ([7]; 336 h, 14 DAA): 89%; pest or weed control at 280 g/ha ([7]; 504 h, 21 DAA): 93%; pest or weed control at 560 g/ha ([7]; 504 h, 21 DAA): 92%
O=C(Cc1ccccc1)NOC(=O)COc1ccc(Cl)cc1Cl [Compound A13, N-(2-(2,4-dichlorophenoxy)acetoxy)-2-phenylacetamide]	75%	70%	80%	74%	91%	70%	65%	70%	85%	94%	90%	97%	68%	80%	70%	85%	75%	93%	68%	65%	pest or weed control at 280 g/ha ([4]; 336 h, 14 DAA): 68%; pest or weed control at 560 g/ha ([4]; 336 h, 14 DAA): 78%; pest or weed control at 280 g/ha ([4]; 504 h, 21 DAA): 73%; pest or weed control at 560 g/ha ([4]; 504 h, 21 DAA): 91%; pest or weed control at 280 g/ha ([5]; 168 h, 7 DAA): 60%; pest or weed control at 560 g/ha ([5]; 168 h, 7 DAA): 65%; pest or weed control at 280 g/ha ([5]; 336 h, 14 DAA): 78%; pest or weed control at 560 g/ha ([5]; 336 h, 14 DAA): 97%; pest or weed control at 280 g/ha ([5]; 504 h, 21 DAA): 83%; pest or weed control at 560 g/ha ([5]; 504 h, 21 DAA): 99%; TGA Data (rate of weight loss, volatility) [6]: 1.2 µg/min; pest or weed control at 280 g/ha ([7]; 168 h, 7 DAA): 67%; pest or weed control at 560 g/ha ([7]; 168 h, 7 DAA): 70%; pest or weed control at 280 g/ha ([7]; 336 h, 14 DAA): 76%; pest or weed control at 560 g/ha ([7]; 336 h, 14 DAA): 85%; pest or weed control at 280 g/ha ([7]; 504 h, 21 DAA): 82%; pest or weed control at 560 g/ha ([7]; 504 h, 21 DAA): 90%

Source: patent publication US20260042731A1, “(2,4-DICHLOROPHENOXY)ACETIC ACID ANALOGS” (CORTEVA AGRISCIENCE LLC, priority 2022, published 2026)
